In PMC5484485, “In vitro and in vivo effects of kisspeptin antagonists p234, p271, p354, and p356 on GPR54 activation” (PLoS ONE, 2017):
Square brackets hold non-standard residues; d marks the D form. Ends that are not written are not given here.

How the values were obtained:
CHEM1-GPR54 cells = target: T1, CHEM1-GPR54 cells (Homo sapiens, UniProt Q969F8); experiment: Preliminary calcium flux assay with adherent CHEM1-GPR54 cells (unpublished); format: cell-based; details: too few repeats for statistics
T1 construct: host or cells: rat hematopoietic CHEM1 cells expressing endogenous Galpha15

circulating LH / puberty = details: cited from earlier work
Procedure: The development of kisspeptin antagonists contributed to an improved understanding of the role of kisspeptin in the reproductive system. Roseweir et al. developed several KP10 analogues and tested their effect on inositol phosphate (IP) release in Chinese hamster ovarian (CHO) cells stably expressing the human GPR54. […] The kisspeptin antagonists were administered intravenously in a dose of 50 μg/kg/h, and had no effect on either the basal plasma LH concentration during the continuous administration or on the KP10-induced LH response. These findings are in line with a previous study in female dogs. […] Adult male rats received an intrape ...

human GPR54 [1] = target: T2, human GPR54 (Homo sapiens, UniProt Q969F8); details: cited from earlier work
Source text: The development of kisspeptin antagonists contributed to an improved understanding of the role of kisspeptin in the reproductive system. Roseweir et al. developed several KP10 analogues and tested their effect on inositol phosphate (IP) release in Chinese hamster ovarian (CHO) cells stably expressing the human GPR54. […] The peptide antagonists are KP10 analogs with substitutions at several positions, which should result in good receptor binding affinity but reduced receptor activation. None of the peptides tested in the present study prevented or inhibited the KP10-stimulated calcium response and thus receptor activation.

human GPR54 [2] = target: T2, human GPR54; experiment: Flow cytometric calcium flux assay, response to peptide alone (agonist / intrinsic activity); format: cell-based; set-up: host or cells: rat hematopoietic CHEM1 cells expressing endogenous Galpha15; details: for EC50: CHEM1-GPR54 cells in suspension, Fluo-3 AM, flow cytometry
Procedure: In vitro analyses of the effects of kisspeptin and kisspeptin antagonists, were performed using HT[…] cells (rat hematopoietic CHEM1 cells expressing endogenous Gα15 and, stably expressing the human GPR54 receptor (Millipore BV, the Netherlands), CHEM1-GPR54. Cells were counted and suspended in HBSS+++ at a concentration of 5*10^6 cells/ml. To load the cells with the fluorescent dye ester they were incubated in HBSS+++ adjusted to a concentration of 2 μM Fluo-3 AM (Molecular Probes, Life Technologies, the Netherlands) for 1h at 37°C under agitation in the dark. After incubation, the cells were washed by adding HBSS+++ to a volume of 10 ml followed by centrifugation (5 min, 150 x g) to remove excess of Fluo-3AM. […] Thereafter the tube was removed briefly and 25 μl peptide (see below) was added, after which aspiration and analysis continued. For statistical analyses fluorescent data recorded during the time interval 30-60 seconds after initiation of measurement were used. […] Experiments were performed 3 times. Representative flow cytometry results are depicted in Fig 1. […] We then assessed whether these antagonists could compete with KP10 for its receptor. […] For this purpose 25 μl quantities of the antagonists were added to 200 μl of Fluo-3 AM labelled cells (10^6 cells/ml) and incubated for 15 min. […] Peptides p354 and p356 were tested three times with both human and canine KP10; while peptides p234 and p271 were tested three times with human KP10 and once with canine KP10. […] A multivariate general linear model was set up to analyze differences in calcium response between the different concentrations, with Dunnett's test as a post hoc procedure for the antagonists and Bonferroni's test for the agonists.

human GPR54 [3] = target: T2, human GPR54; experiment: Flow cytometric calcium flux assay, KP10-induced response after 15 min pre-incubation with antagonist; format: cell-based; set-up: host or cells: rat hematopoietic CHEM1 cells expressing endogenous Galpha15; details: 10^-8 M KP10
Procedure: In vitro analyses of the effects of kisspeptin and kisspeptin antagonists, were performed using HT[…] cells (rat hematopoietic CHEM1 cells expressing endogenous Gα15 and, stably expressing the human GPR54 receptor (Millipore BV, the Netherlands), CHEM1-GPR54. Cells were counted and suspended in HBSS+++ at a concentration of 5*10^6 cells/ml. To load the cells with the fluorescent dye ester they were incubated in HBSS+++ adjusted to a concentration of 2 μM Fluo-3 AM (Molecular Probes, Life Technologies, the Netherlands) for 1h at 37°C under agitation in the dark. After incubation, the cells were washed by adding HBSS+++ to a volume of 10 ml followed by centrifugation (5 min, 150 x g) to remove excess of Fluo-3AM. […] Thereafter the tube was removed briefly and 25 μl peptide (see below) was added, after which aspiration and analysis continued. For statistical analyses fluorescent data recorded during the time interval 30-60 seconds after initiation of measurement were used. […] We then assessed whether these antagonists could compete with KP10 for its receptor. […] For this purpose 25 μl quantities of the antagonists were added to 200 μl of Fluo-3 AM labelled cells (10^6 cells/ml) and incubated for 15 min. […] Peptides p354 and p356 were tested three times with both human and canine KP10; while peptides p234 and p271 were tested three times with human KP10 and once with canine KP10. To analyze the effects of different concentrations of the KP antagonists on the calcium response due to KP10 addition, the differences in fluorescence before and after KP10 were calculated (the calcium response). The calcium response ratios were calculated as the calcium response of the CHEM1-GPR54 cells pre-incubated with different concentrations of KP antagonist and the control (the calcium response of the cells without KP antagonist). These calcium response ratios were log transformed and used for further analysis by univariate analysis of variance, with the Dunnett's test as post hoc test. The calcium response ratios were set as dependent variables and the different concentrations of the antagonists and the two types of KP10 were used as fixed factors. The residuals were normally distributed.

plasma LH concentration = experiment: Plasma LH in anestrous Beagle bitches during antagonist infusion and after cKP10 bolus; format: in vivo, dog; details: n = 6
Source text: Thirteen adult anestrous Beagle bitches were used for this study. Six dogs with a median age of 89 months (range 43–122 months) were used as control group, receiving cKP10 without an antagonist. Eight dogs with a median age of 52 months (range 31–116 months) were used for the antagonist experiments. One dog was first used in the control group and 12 months later for the antagonist experiments. Of the eight dogs used for the antagonist experiments, four received p271, p354, and p356. In two of the eight dogs both p354 and p356 were tested, while in the remaining two dogs only p271 was tested, in order to test every antagonist in 6 dogs. The time between testing of different kisspeptin antagonists was at least 5 days (range 5–15 days) to ensure that there were no peptide residues. Kisspeptin antagonist p234 per se was not tested in vivo because p271 is in fact p234 with a penetratin tag to enhance passage across the blood-brain barrier, as has been described for use with peripheral administration.
Kisspeptin antagonists (50 μg/kg/h) were administered continuously for three hours via a catheter in the cephalic vein. Two hours after the start of the infusion, a single bolus of cKP10 (0.5 μg/kg) was administered intravenously. Blood samples were collected from the jugular vein by venipuncture at -40 min and 0 min before the antagonist infusion, and then every 30 min for two hours. After the administration of cKP10, blood samples were collected at 10, 20, 40, and 60 min (i.e., 130, 140, 160, and 180 min after the start of the antagonist infusion).
As a control, KP stimulation tests (without the administration of a kisspeptin antagonist) were performed in six dogs. Blood samples were collected from the jugular vein by venipuncture at -40 min and 0 min before, and then at 10, 20, 40, and 60 min after administration of cKP10 (0.5 μg/kg). Plasma LH concentrations were measured in all blood samples.
Plasma LH concentrations were measured with a heterologous radioimmunoassay validated for the dog, as described previously. The intra- and interassay CVs for values above 0.5 μg/l were 2.3 and 10.5%, respectively, and the limit of quantitation was 0.3 μg/l.
In both groups of dogs (experimental and control), the basal plasma LH concentration was calculated for each dog as the mean of the values at –40 and 0 min before cKP10 or antagonist administration. All LH values that exceeded the mean of all basal samples plus 3 SD were attributed to pulsatile secretion and were treated as outliers and excluded from statistical analysis. Log transformation of plasma LH concentrations was used because data were not normally distributed. A linear mixed model was used to analyze differences in plasma LH concentrations before and after KP10, with or without a kisspeptin antagonist (group effects: p271, p354, p356, and controls), with Bonferroni correction. P<0.05 was considered significant.

kisspeptin receptor = details: ref unpublished data; cited from earlier work
Procedure: The following peptides were tested for antagonistic properties on the kisspeptin receptor: p234 ((D-Ala)-Asn-Trp-Asn-Gly-Phe-Gly-(D-Trp)-Arg-Phe-NH2), p271 (Arg-Arg-Met-Lys-Trp-Lys-Lys-Tyr-(D-Ala)-Asn-Trp-Asn-Gly-Phe-Gly-(D-Trp)-Arg-Phe-NH2), p354 ((D-Ala)-Tyr-Asn-Phe-Asn-Gly-Phe-Gly-(D-Trp)-Arg-Phe-NH2), and p356 ((D-Ala)-Tyr-Asn-Trp-Asn-Gly-Phe-Gly-(D-Trp)-Lys-Phe-NH2). Peptide 354 and p356 are next generation analogs refining p234.

[4] = antagonist 50 μg/kg/h iv, cKP10 0.5 μg/kg iv

T2 sequence (Q969F8 whole entry): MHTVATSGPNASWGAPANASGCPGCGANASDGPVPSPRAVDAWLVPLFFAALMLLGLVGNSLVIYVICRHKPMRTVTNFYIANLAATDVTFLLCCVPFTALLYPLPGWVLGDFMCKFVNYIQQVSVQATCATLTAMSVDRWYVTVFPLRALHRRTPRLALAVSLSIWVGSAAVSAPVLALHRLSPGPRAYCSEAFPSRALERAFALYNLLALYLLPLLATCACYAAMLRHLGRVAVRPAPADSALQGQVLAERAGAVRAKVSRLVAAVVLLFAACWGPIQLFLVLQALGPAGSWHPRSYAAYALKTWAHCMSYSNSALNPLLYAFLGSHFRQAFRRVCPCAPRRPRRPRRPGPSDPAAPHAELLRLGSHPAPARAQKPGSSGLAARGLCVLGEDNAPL
T1 sequence (Q969F8 whole entry): as above

Molecule: [dA]NWNGFG[dW]RF-NH2 [p234, kisspeptin antagonist, KP10 analog]
- inhibition of KP10-induced calcium response, adherent cells (CHEM1-GPR54 cells): could not be inhibited
- effect of antagonist alone on basal plasma LH (circulating LH / puberty; intact rats and mice): did not lower the basal plasma LH concentration
- effect on circulating LH when co-administrated with KP10 (circulating LH / puberty; intracerebroventricular): prevented an increase in the circulating LH concentration
- effect on vaginal opening (indicator of puberty) (circulating LH / puberty; rats, intracerebroventricular): delayed vaginal opening
- inhibitory effect on IP release in vitro, rank among KP10 analogues (human GPR54 [1]; CHO cells stably expressing human GPR54): most potent inhibitory effect
- inhibition of KP10-induced inositol phosphate (IP) production (human GPR54 [1]; CHO cells that express GPR54): 93%
- intrinsic calcium response (human GPR54 [2]; any tested concentration, 10^-13 to 10^-5 M, n = 3): no significant intrinsic calcium response
- difference in calcium response ratio between controls and antagonist (human GPR54 [3]; all concentrations 10^-13 to 10^-5 M, 15 min pre-incubation, P = 1.00): not significant

Molecule: [dA]YNWNGFG[dW]KF-NH2 [p356]
- intrinsic calcium response at highest concentration (human GPR54 [2]; 10^-5 M, P = 0.001): clear calcium response
- pharmacological character on CHEM1-GPR54 cells (human GPR54 [2]; authors' conclusion): partial agonist
- calcium response ratio versus control at highest concentration (human GPR54 [3]; 10^-5 M, P<0.001, ascribed to intrinsic response, not antagonism): smaller than the negative control
- Median (and range) plasma LH, t = 30 (plasma LH concentration; 30 min of antagonist infusion 50 μg/kg/h iv): 4.1 (2.4–12.8) μg/L
- Median (and range) plasma LH, t = 60 (plasma LH concentration; 60 min of antagonist infusion 50 μg/kg/h iv): 3.9 (2.2–7.7) μg/L
- Median (and range) plasma LH, t = 90 (plasma LH concentration; 90 min of antagonist infusion 50 μg/kg/h iv): 4.5 (2.8–6.7) μg/L
- Median (and range) plasma LH, t = 120 (plasma LH concentration; 120 min of antagonist infusion 50 μg/kg/h iv, before cKP10): 4.9 (2.1–10.4) μg/L
- median maximum increment in plasma LH concentration after cKP10 during antagonist administration (plasma LH concentration; [4]): 8.1 µg/L
- range of maximum increment in plasma LH concentration after cKP10 during antagonist administration (plasma LH concentration; [4]): 6.3 to 18.3 µg/L
- Median (and range) plasma LH, t = 130 / t = 10* (plasma LH concentration; antagonist infusion 50 μg/kg/h iv, 10 min after cKP10 0.5 μg/kg iv): 12.8 (9.1–23.1) μg/L
- Median (and range) plasma LH, t = 140 / t = 20* (plasma LH concentration; antagonist infusion 50 μg/kg/h iv, 20 min after cKP10 0.5 μg/kg iv): 8.7 (7.1–13.4) μg/L
- Median (and range) plasma LH, t = 180 / t = 60* (plasma LH concentration; antagonist infusion 50 μg/kg/h iv, 60 min after cKP10 0.5 μg/kg iv): 4.7 (3.6–12.8) μg/L
- Median (and range) plasma LH, Basal (plasma LH concentration; before antagonist infusion (mean of -40 and 0 min per dog)): 4.3 (2.8–6.0) μg/L
- effect on basal plasma LH concentration (plasma LH concentration; continuous iv 50 μg/kg/h, anestrous bitches): did not cause significant alterations
- binding and inhibition of kisspeptin action on inositol generation, potency range (kisspeptin receptor): nanomolar range

Molecule: YNWNVFGLRY-NH2 [cKP10, Tyr-Asn-Trp-Asn-Val-Phe-Gly-Leu-Arg-Tyr-NH2, reference compound]
- EC50 (human GPR54 [2]; 10^-13 to 10^-5 M, n = 3): 8 nM

Molecule: CC(C)C[C@H](NC(=O)CNC(=O)[C@H](Cc1ccccc1)NC(=O)[C@H](CO)NC(=O)[C@H](CC(N)=O)NC(=O)[C@H](Cc1c[nH]c2ccccc12)NC(=O)[C@H](CC(N)=O)NC(=O)[C@@H](N)Cc1ccc(O)cc1)C(=O)N[C@@H](CCCNC(=N)N)C(=O)N[C@@H](Cc1ccccc1)C(N)=O [hKP10, Tyr-Asn-Trp-Asn-Ser-Phe-Gly-Leu-Arg-Phe-NH2, reference compound]
- EC50 (human GPR54 [2]; 10^-13 to 10^-5 M, n = 3): 1.2 nM
